# From patent US12351878B2, “Identification of HER2 mutations in lung cancer and methods of treatment” (THE TRANSLATIONAL GENOMICS RESEARCH INSTITUTE, priority 2018, dated 2025)
# Entries after “also recorded” stand apart in the source; their conditions may differ. Read-outs that look alike come from different tables or passages of the source.
# Tests used:
# [1] = tested on: HER2 V659E cPAC cell lines; experiment: 72 hour drug dose-response, CellTiter-Glo cell viability; type: cell-based, canine; settings: for IC50: Canis lupus familiaris; for sensitivity of HER2 V659E lines relative to HER2 wild-type cell lines: in vitro viability
# Source text: (§1) Sample Collection: Tumors and cell lines from 89 dogs from the Canine Comparative Oncology and Genomics Consortium (CCOGC) (11) and The Ohio State University (OSU) College of Veterinary Medicine Biospecimen Repository were included. Board-certified veterinary pathologists confirmed tumor diagnosis based on histopathology. Tumor and normal tissue samples were flash frozen in liquid nitrogen or formalin-fixed and paraffin-embedded (FFPE). Cell lines were maintained in RPMI 1640 with GlutaMAX™ (Gibco™, Thermo Fisher Scientific, #61870036) supplemented with 10% heat-inactivated fetal bovine serum at 37° C. and 5% CO2 and passaged at 90% confluence. Cell lines with known passage data (except BACA) were sequenced within the first eight passages of derivation and subsequently expanded for phenotypic studies, and were authenticated by IDEXX BioResearch (Columbia, MO) using the Cell Check Canine STR Profile and Interspecies Contamination Test or by NkX2 (or TTF-1) RT-PCR. Human cell lines included BT474 (ATCC #HTB20, HER2 focal amplification) and H1781 (ATCC #CRL-5894, HER2 […]). Blood for cell-free DNA (cfDNA) and germline DNA extraction was collected in 10 ml K2 EDTA Blood tubes (Thermo Fisher Scientific #22-253-145). Plasma separation was performed at room temperature within 1 hour (2× serial centrifugation at 2000 rpm×15 minutes). Plasma aliquots were stored frozen at −80° C. DNA extraction from plasma, white blood cells and tissue was performed with MagMAX Cell-Free DNA Isolation Kit (Thermo Fisher Scientific #A29319), DNeasy Blood and Tissue Kit (QIAGEN #69504) and Qiagen AllPrep DNA/RNA Mini Kit (QIAGEN #80204), respectively.
# (§2) Cells were cultured in RPMI supplemented with 10% FBS and 1% Penicillin/Streptomycin. Luminescence was read using Synergy Mx (Biotek) plate reader. Six replicates were performed for each dose. Curve-fitting and IC50 calculations were performed using GraphPad Prism v7.00 (GraphPad Software).
# (§3) We first assessed differential sensitivity of HER2 V659E and HER2 WT canine lung cancer cell lines to lapatinib (HER2 and EGFR inhibitor) and neratinib (HER2, HER4, and EGFR inhibitor). Five cPAC cell lines (two HER2 V659E and three HER2 WT) were treated with neratinib and four (one HER2 V659E and three HER2 WT) with lapatinib for 72 hours. Two HER2-mutant human cancer cell lines-BT474 (HER2 AMP) and H1781 (kinase domain HER2 G776ins)—were treated as positive drug controls (18, 21) (FIGS. 2B and 6). […] Given that HER2 receptors dimerize with EGFR, we then evaluated differential sensitivity of the five canine cell lines and the human BT474 control line to the EGFR inhibitor, erlotinib.
# HER2 WT cPAC cell lines = experiment: as above; type: cell-based, canine; settings: Canis lupus familiaris
# Source text: as §1, §2, §3
# [2] = tested on: HER2-mutant cell lines (HER2 V659E cPAC lines, BT474, H1781); experiment: as above; type: cell-based, canine and human; settings: all HER2-mutant cell lines
# Source text: Sample Collection: Tumors and cell lines from 89 dogs from the Canine Comparative Oncology and Genomics Consortium (CCOGC) (11) and The Ohio State University (OSU) College of Veterinary Medicine Biospecimen Repository were included. Board-certified veterinary pathologists confirmed tumor diagnosis based on histopathology. Tumor and normal tissue samples were flash frozen in liquid nitrogen or formalin-fixed and paraffin-embedded (FFPE). Cell lines were maintained in RPMI 1640 with GlutaMAX™ (Gibco™, Thermo Fisher Scientific, #61870036) supplemented with 10% heat-inactivated fetal bovine serum at 37° C. and 5% CO2 and passaged at 90% confluence. […]
# Cells were cultured in RPMI supplemented with 10% FBS and 1% Penicillin/Streptomycin. Luminescence was read using Synergy Mx (Biotek) plate reader. […]
# We first assessed differential sensitivity of HER2 V659E and HER2 WT canine lung cancer cell lines to lapatinib (HER2 and EGFR inhibitor) and neratinib (HER2, HER4, and EGFR inhibitor). […] Given that HER2 receptors dimerize with EGFR, we then evaluated differential sensitivity of the five canine cell lines and the human BT474 control line to the EGFR inhibitor, erlotinib.
# [3] = tested on: p-AKT in OSUK9PAPADO (HER2 WT); experiment: Western blot of phospho-AKT and AKT under serum starvation; type: cell-based, canine; settings: 5 doses 20-2000 nmol/L
# Experimental: […]
# (§4) Immunoblot Analyses: Subconfluent cells were serum starved overnight, then treated with 20 nM neuregulin for 15 min prior to harvest. […] Membranes were blocked for 1 hour in LiCor blocking buffer and incubated with primary antibody at 4° C., overnight, followed by fluorescence-conjugated secondary antibodies. […]
# [4] = tested on: p-AKT in OSUK9PAPADRi (HER2 V659E); experiment: as above; type: cell-based, canine; settings: 5 doses 20-2000 nmol/L
# Experimental: […]
# as §4
# p-AKT in BT474 (HER2amp) = experiment: as above; type: cell-based, human; settings: 5 doses 20-2000 nmol/L
# Experimental: […]
# as §4
# [5] = 72 h, read-out: IC50, viability
SMILES,"IC50 ([1]; HER2 V659E cPAC cell lines, 72 hours, both TKIs, read-out: IC50, viability) [nM]",sensitivity of HER2 V659E lines relative to HER2 wild-type cell lines [1],"IC50 (HER2 WT cPAC cell lines; HER2 WT cPAC cell lines, 72 hours, both TKIs, read-out: IC50, viability) [nM]","IC50 ([1]; 72 h, read-out: IC50, viability, one of the two HER2 V659E lines, 72 hours) [nM]","IC50 ([1]; 72 h, read-out: IC50, viability, other of the two HER2 V659E lines, 72 hours) [nM]",sensitivity of HER2-mutant canine cell lines ([1]; two HER2-mutant cell lines),IC50 (HER2 WT cPAC cell lines; [5]) [nM],"IC50 [1, 5] [nM]","IC50 (HER2 WT cPAC cell lines; 72 h, read-out: IC50, viability, HER2 WT cPAC cell lines, 72 hours, both TKIs) [nM]","IC50 (HER2 WT cPAC cell lines; 72 h, read-out: IC50, viability, HER2WT cells, 72 hours, p=0.0079 vs HER2-mutant) [nM]",IC50 [2] [nM],p-AKT level by Western blot [3],p-AKT level by Western blot [4],p-AKT level by Western blot (p-AKT in BT474 (HER2amp))
CS(=O)(=O)CCNCc1ccc(-c2ccc3ncnc(Nc4ccc(OCc5cccc(F)c5)c(Cl)c4)c3c2)o1 [lapatinib],< 200,selectively sensitive; also recorded: hypersensitivity,> 2500,–,–,–,–,–,–,–,–,–,–,–
C#Cc1cccc(Nc2ncnc3cc(OCCOC)c(OCCOC)cc23)c1 [erlotinib],–,–,–,220,1170,One of two HER2-mutant cell lines showed erlotinib sensitivity,1100 to 15400,–,–,–,–,–,–,–
CCOc1cc2ncc(C#N)c(Nc3ccc(OCc4ccccn4)c(Cl)c3)c2cc1NC(=O)/C=C/CN(C)C [neratinib],–,selectively sensitive; also recorded: hypersensitivity,–,–,–,–,–,< 200,> 2500,> 2700,< 50,low at all treatment levels,dose-dependent decrease in p-AKT,dose-dependent decrease in p-AKT
